According to ChEMBL document CHEMBL1154381, “Mining biologically-active molecules for inhibitors of fatty acid amide hydrolase (FAAH): identification of phenmedipham and amperozide as FAAH inhibitors” (Bioorg Med Chem Lett, 2009):

Columns and labels:
[1] = target: T1, Fatty-acid amide hydrolase 1 (Homo sapiens, UniProt O00519); experiment: Inhibition of human FAAH-mediated hydrolysis of [3H]AEA
T1 sequence (O00519 whole entry): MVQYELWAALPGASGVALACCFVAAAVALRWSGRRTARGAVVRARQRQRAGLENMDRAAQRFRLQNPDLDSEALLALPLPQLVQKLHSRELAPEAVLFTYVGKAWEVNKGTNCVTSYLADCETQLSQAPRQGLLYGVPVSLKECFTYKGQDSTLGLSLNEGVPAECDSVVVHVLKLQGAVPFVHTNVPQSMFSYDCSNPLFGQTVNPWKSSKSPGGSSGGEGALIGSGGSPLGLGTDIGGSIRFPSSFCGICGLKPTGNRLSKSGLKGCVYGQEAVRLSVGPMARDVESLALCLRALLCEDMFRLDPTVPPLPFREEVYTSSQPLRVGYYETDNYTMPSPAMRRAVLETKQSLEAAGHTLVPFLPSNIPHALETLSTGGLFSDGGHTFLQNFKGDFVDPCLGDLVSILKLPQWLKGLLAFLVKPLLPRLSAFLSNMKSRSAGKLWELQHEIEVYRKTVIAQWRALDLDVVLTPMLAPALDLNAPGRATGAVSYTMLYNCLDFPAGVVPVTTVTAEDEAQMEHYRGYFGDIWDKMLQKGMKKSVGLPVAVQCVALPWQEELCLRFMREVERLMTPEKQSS

[2] = target: T1, Fatty-acid amide hydrolase 1; experiment: Inhibition of human FAAH
[3] = target: T2, Fatty-acid amide hydrolase 1 (Rattus norvegicus) (UniProt P97612); experiment: Inhibition of rat FAAH at 10 uM
T2 sequence (whole entry): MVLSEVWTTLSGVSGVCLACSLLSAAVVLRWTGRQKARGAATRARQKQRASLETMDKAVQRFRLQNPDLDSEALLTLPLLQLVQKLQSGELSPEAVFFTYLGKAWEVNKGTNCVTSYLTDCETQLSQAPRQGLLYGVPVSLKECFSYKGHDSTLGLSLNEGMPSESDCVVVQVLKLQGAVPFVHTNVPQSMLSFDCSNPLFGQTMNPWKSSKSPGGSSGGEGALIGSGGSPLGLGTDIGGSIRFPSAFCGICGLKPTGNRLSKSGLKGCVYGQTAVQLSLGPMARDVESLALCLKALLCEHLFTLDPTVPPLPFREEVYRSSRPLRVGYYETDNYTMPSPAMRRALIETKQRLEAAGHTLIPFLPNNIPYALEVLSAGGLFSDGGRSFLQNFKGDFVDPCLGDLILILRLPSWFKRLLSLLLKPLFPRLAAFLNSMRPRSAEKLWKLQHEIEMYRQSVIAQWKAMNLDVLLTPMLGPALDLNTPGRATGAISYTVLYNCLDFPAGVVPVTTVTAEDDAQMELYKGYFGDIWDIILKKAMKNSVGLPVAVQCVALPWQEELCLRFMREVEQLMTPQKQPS

[4] = target: T3, Fatty-acid amide hydrolase 1 (Rattus norvegicus, UniProt P97612); experiment: Inhibition of rat FAAH
T3 sequence (P97612 whole entry): T2 sequence (whole entry)

[5] = Toxicity in rat; assay type: organism-based; settings: in vivo

inhibition [3] [%] | SMILES | IC50 [1] [µM] | IC50 [2] [µM] | IC50 [4] [µM] | LD50 [5] [mg/kg]
50 | CCNC(=O)N1CCN(CCCC(c2ccc(F)cc2)c2ccc(F)cc2)CC1 [AMPEROZIDE] | 0.455 | 1.34 | – | –
– | COC(=O)Nc1cccc(OC(=O)Nc2cccc(C)c2)c1 | 0.152 | 0.377 | 0.077 | > 8000
